In this assay the test system is bovine serum albumin (BSA) antigen. Put plainly: Immunization, humoral response by ELISA. To be noted: for Antibody titres (A410 nm): 12.5 μg BSA i.p. at days 0 and 14, sera diluted by a factor of 400. The assay is classed as in vivo, mice. Here is the method:
For in vivo studies with archaeosomes (prepared from the TPL, or a lipid obtained in a biologically pure form from the indicated archaeobacterium) and conventional liposomes (prepared from DMPC:DMPG at 1.8:0.2 molar ratio, or DMPC:DMPG:CHOL at 1.8:0.2:1.5 molar ratio, or DMPC:DCP:CHOL at 7:1:2 molar ratio) containing entrapped antigen, the vesicles were prepared by pressure extrusion (at room temperature for archaeobacterial and at 35° C. for DMPC-containing lipids, using 400 nm pore size filters). About 20 mg dry weight of the dried lipid(s) was hydrated in 1 ml PBS containing either BSA (5 mg/ml), Cholera B toxin subunit (0.5 mg/ml), or O-chain polysaccharide (18 mg/ml). To entrap BSA in DSPC:DCP:CHOL (4:1:5, molar ratio), in DSPC:DCP:CHOL:CoQ10 (3:1:4:2, molar ratio), and M. mazei TPL:CoQ10 (8:2, molar ratio), the vesicles were prepared by the REV (at 55° C.)-sonication method described above. The BSA was encapsulated in these vesicles by the DRV method as described by New (13). The antigen that was not entrapped/associated with the vesicles was removed by centrifugation and washing as described for peroxidase-vesicles.
The immunization strategies were similar for each of the different experiments. For each experiment, details of the amounts and types of antigen/adjuvant injected, and the time intervals between injections is described in the appropriate figure legends. Freund's adjuvant (FA) encompasses Freund's complete adjuvant (CFA) and Freund's incomplete adjuvant (IFA) used at 62.5% strength in PBS. For each antigen/adjuvant preparation three mice were injected (unless indicated otherwise) i.p., i.m., or s.c. with antigens encapsulated in archaeosomes or liposomes (diluted in sterile PBS, pH 7.1), antigens emulsified in CFA, or with antigens diluted in PBS alone (final volume, 0.2 ml/mouse). For the second immunization, mice were injected with antigens encapsulated in archaeosomes or liposomes, or emulsified in IFA, or diluted in PBS. For experiments where a third or fourth injection was required, antigens were injected either encapsulated in the respective vesicle type or as bare antigen diluted in PBS. Mice were 6-8 weeks of age at the time of the first immunization.
Mice were bled from the tail veins usually four days after each injection. The blood was allowed to dot, and cells removed from the serum by centrifuging in serum separator tubes.
The humoral response was measured by the indirect enzyme-linked immunosorbent assay (ELISA) using a variety of solid-phase adsorbed antigens. BSA, Cholera B toxin subunit, or E. coli 0:157:H7 lipopolysaccharide was diluted in distilled water (15 μg/ml final concentration) and 100 μl/well was dried (overnight incubation at 37° C.) to coat the ELISA microplate wells. All indirect ELISA assays were performed using standard methods. Dilutions of antibody-containing sera were used as the first antibody and a 1/1500 dilution of HRP-conjugated goat anti-mouse IgG+IgM as the detection antibody.
The isotypes of anti-BSA antibodies raised in mouse sera were assayed by an ELISA method. Wells were coated with BSA (as above). Dilutions of each serum were titred with peroxidase-coupled sheep anti-mouse IgG1, IgG2a, IgG2b, IgG3, and IgM. All ELISA data are reported as the means ± sample standard deviations.
(In general: ELISA stands for enzyme-linked immunosorbent assay.)

These results are taken from patent US6403117B1, “Archaesomes, archaeosomes containing coenzyme Q10 and other types of liposomes containing coenzyme Q10 adjuvants and as delivery vehicles” (National Research Council of Canada, priority 1995, dated 2002).

Turning to “Bare BSA: bovine serum albumin antigen alone in PBS, without adjuvant or vesicle”, the “Antibody titres (A410 nm)” value is listed as 0.064 ± 0.001 A410 nm (Day 25), 0.082 ± 0.007 A410 nm (Day 35) and 0.075 ± 0.008 A410 nm (Day 55). The “Antibody titre (A410 nm)” value is, setting by setting: (i.m., 12.5 μg antigen alone in PBS, sera diluted 400-fold) 0.063 ± 0.003 A410 nm; (i.p., 25 μg antigen alone in PBS, no carrier/adjuvant, sera diluted 400 fold) 0.137 ± 0.002 A410 nm. Moreover, the “Immune response (Relative %)” value (i.p., 12.5 μg BSA, days 0 and 14, blood day 20, IgG + IgM, archaeobacterial lipids none) turned out to be 6.9 ± 0.3 Relative %. Moreover, under “i.p., antigen alone in PBS, undiluted sera”, the “Anti-BSA antibody Concentration” value amounted to 10.5 µg/mL.
